Results from patent publication US8080553B2, “Methods and reagents for the treatment of immunoinflammatory disorders” (Zalicus Inc., priority 2003, dated 2011).
Where “and” joins values, the source holds several entries; their conditions need not be identical. Identical values can stand only once. Counter-ions that a name gives are not always drawn. Like-named read-outs stand apart in the source and are kept apart here.

Experiments:
[1] = tested on: TNFα secretion in white blood cells from human buffy coat; assay: TNFα secretion assay, cells stimulated with phorbol 12-myristate 13-acetate and ionomycin (Tables 7-26); settings: for percent inhibition of TNFα secretion: dipyridamole 0 μM; for inhibition at 0.3 µM: read-out: percent inhibition of TNFα secretion, dipyridamole 0.3 μM; for inhibition at 19 µM: read-out: percent inhibition of TNFα secretion, dipyridamole 19 μM; for inhibition at 39 µM: read-out: percent inhibition of TNFα secretion, dipyridamole 39 μM
Protocol: (§1) Drugs were added to the indicated concentration. […] The plate was then washed again with 0.1% Tween 20/PBS. An HRP-luminescent substrate was added to each well, and the light intensity of each well was measured using a plate luminometer.

[2] = tested on: TNFα secretion in white blood cells from human buffy coat
Protocol: as §1

[3] = Homo sapiens, Nortriptyl (μM): 0, 0.52, 1, 2.1, 4.2, 8.3, 17, 33, 67
[4] = Homo sapiens, Ro-20-1724 (μM) by grid row: r5 0, r6 0.28, r7 0.56, r8 1.1, r9 2.2, r10 4.5, r11 9, r12 18, r13 36
[5] = Homo sapiens, amoxapine (μM) by grid row: r5 0, r6 0.25, r7 0.5, r8 1, r9 2, r10 4, r11 8, r12 16, r13 32
[6] = Homo sapiens, fluoxetine (μM) by grid row: r5 0, r6 0.45, r7 0.9, r8 1.8, r9 3.6, r10 7.2, r11 14, r12 29, r13 58
[7] = Homo sapiens, paroxetine (μM): 0, 0.21, 0.42, 0.83, 1.7, 3.3, 6.7, 13, 27

For `CCCC1O[C@@H]2C[C@H]3[C@@H]4CCC5=CC(=O)C=C[C@]5(C)[C@H]4[C@@H](O)C[C@]3(C)[C@]2(C(=O)CO)O1` (stereo partly shown) [Budesonide], the inhibition at […] ([1]; Homo sapiens, read-out: percent inhibition of TNFα secretion, budesonide 35 nM, dipyridamole (μM as printed) by grid row: r5 0, r6 30, r7 121, r8 486, r9 1943, r10 7773) was 36.3%.
`COc1ccc(C2CNC(=O)C2)cc1OC1CCCC1` (stereo not shown) [Rolipram, 4-[3-(cyclopentyloxy)-4-methoxyphenyl]-2-pyrrolidone] was tested, and the inhibition at 0.5 µM ([1]; Homo sapiens, read-out: percent inhibition of TNFα secretion, rolipram 0.5 μM, dipyridamole (μM): 0, 0.15, 0.3, 0.61, 1.2, 2.4, 4.9, 9.7, 19) was 36.8% and the inhibition at 1 µM ([1]; Homo sapiens, read-out: percent inhibition of TNFα secretion, rolipram 1 μM, dipyridamole (μM): 0, 0.15, 0.3, 0.61, 1.2, 2.4, 4.9, 9.7, 19) was 38.9%.
For `CCOC(=O)N1CCC(=C2c3ccc(Cl)cc3CCc3cccnc32)CC1` [Loratadine], the “percent inhibition of TNFα secretion” value ([1]; loratadine (μM) by grid row: r5 0, r6 0.2, r7 0.41, r8 0.82, r9 1.6, r10 3.3, r11 6.5, r12 13, r13 26) was 31%.
With `CN1CCC(=C2c3ccccc3C=Cc3ccccc32)CC1` [Cyproheptadine HCl] the “percent inhibition of TNFα secretion” value ([1]; cyproheptadine HCl (μM) by grid row: r5 0, r6 0.24, r7 0.48, r8 0.96, r9 1.9, r10 3.9, r11 7.7, r12 15, r13 31) was 29%.
`C[C@]12C=CC(=O)C=C1CC[C@@H]1[C@@H]2[C@@H](O)C[C@@]2(C)[C@H]1CC[C@]2(O)C(=O)CO` [Prednisolone] was tested, and the inhibition at 0.5 µM ([1]; Homo sapiens, read-out: percent inhibition of TNFα secretion, prednisolone 0.5 μM, dipyridamole (μM) by grid row: r5 0, r6 0.3, r7 0.61, r8 1.2, r9 2.4, r10 4.9, r11 9.7, r12 19, r13 39) was 29.9%.
`OCCN(CCO)c1nc(N2CCCCC2)c2nc(N(CCO)CCO)nc(N3CCCCC3)c2n1` [Dipyridamole, 2,6-bis(diethanolamino)-4,8-dipiperidinopyrimido(5,4-d)pyrimidine] gave an inhibition at 0.3 µM [1, 3] of 14%, an inhibition at 0.3 µM [1, 4] of -1.96% and an inhibition at 0.3 µM [1, 5] of 19%. For the same compound, the inhibition at 0.3 µM [1, 6] was 18%, the inhibition at 0.3 µM [1, 7] was 21% and the inhibition at 19 µM [1, 3] was 64%. It also gave an inhibition at 19 µM [1, 4] of 64%, an inhibition at 19 µM [1, 6] of 62% and an inhibition at 19 µM [1, 7] of 60%. The inhibition at 39 µM [1, 3] was 80%, the inhibition at 39 µM [1, 5] was 78% and the inhibition at 39 µM [1, 6] was 76%. It also gave an inhibition at 39 µM [1, 7] of 76%.
`C[C@H]1C[C@H]2[C@@H]3CCC4=CC(=O)C=C[C@]4(C)[C@@]3(F)[C@@H](O)C[C@]2(C)[C@@]1(O)C(=O)CO` [Betamethasone] was tested, and the inhibition [2] was 34.9% and 35.2%.
Work on `CC(C)C(=O)c1c(C(C)C)nn2ccccc12` [Ibudilast] yielded an inhibition at 0.5 µM ([1]; Homo sapiens, read-out: percent inhibition of TNFα secretion, ibudilast 0.5 μM, dipyridamole (μM): 0, 0.15, 0.3, 0.61, 1.2, 2.4, 4.9, 9.7, 19) of 22.9%, an inhibition at 1 µM ([1]; Homo sapiens, read-out: percent inhibition of TNFα secretion, ibudilast 1 μM, dipyridamole (μM): 0, 0.15, 0.3, 0.61, 1.2, 2.4, 4.9, 9.7, 19) of 37.4% and an inhibition at 2 µM ([1]; Homo sapiens, read-out: percent inhibition of TNFα secretion, ibudilast 2 μM, dipyridamole (μM): 0, 0.15, 0.3, 0.61, 1.2, 2.4, 4.9, 9.7, 19) of 42.9%. It also gave an inhibition at 4 µM ([1]; Homo sapiens, read-out: percent inhibition of TNFα secretion, ibudilast 4 μM, dipyridamole (μM): 0, 0.15, 0.3, 0.61, 1.2, 2.4, 4.9, 9.7, 19) of 45.9% and an inhibition at 8 µM ([1]; Homo sapiens, read-out: percent inhibition of TNFα secretion, ibudilast 8 μM, dipyridamole (μM): 0, 0.15, 0.3, 0.61, 1.2, 2.4, 4.9, 9.7, 19) of 53.8%.
